Test results taken from patent US20240294471A1, “ROS-RESPONSIVE CAPTOPRIL-CINNAMALDEHYDE PRODRUGS AND COMPOSITIONS AND METHODS THEREOF” (The University of Hong Kong, priority 2021, published 2024).

Legend:
[1] = system: LPS-stimulated Raw 264.7 cells; assay: NO generation (nitrite in culture supernatant, Griess reagent); format: cell-based; conditions: Raw264.7 cells, LPS 10 μg/mL, 24 h, dose-dependent, FIG. 2
Description: Nitrite levels, an index of cellular NO production, in culture supernatants of Raw 264.7 cells were determined using a modified Griess reagent. Briefly, Raw 264.7 cells were seeded in 24-well plates. After a 24 h incubation, prodrugs were added to the cells at different concentrations and incubated for 1 h, and then the cells were treated with or without LPS (10 μg/mL) for another 24 h. The supernatant was mixed with an equal volume of Griess reagent and incubated at room temperature for 15 min. The absorbance at 540 nm was measured. Three replicate wells were used in this experiment.

[2] = system: LPS-stimulated Raw264.7 cells; assay: mRNA levels of proinflammatory cytokines by qRT-PCR; format: cell-based; conditions: 24 h, dose dependent, FIGS. 4A-4C
Description: […] Briefly, Raw 264.7 cells were seeded in 12-well plates. After a 24 h incubation, prodrugs were added to the cells at different concentrations and incubated for 1 h, and then the cells were treated with or without LPS (10 μg/mL) for another 24 h. qRT-PCR experiments were measured according to the manufacturer's instruction. Three replicate wells were used in this experiment.

[3] = system: LPS-stimulated Raw264.7 cells; assay: Protein levels of TNF-α, IL-1β and IL-6 by ELISA; format: cell-based; conditions: supernatant, 24 h, dose dependent, FIGS. 3A-3C
Description: The protein levels of TNF-α, IL-1β and IL-6 were determined by ELISA. Briefly, Raw 264.7 cells were seeded in 24-well plates. After a 24 h incubation, prodrugs were added to the cells at different concentrations and incubated for 1 h, and then the cells were treated with or without LPS (10 μg/mL) for another 24 h. The supernatants were collected for determination of protein levels according to the ELISA kit's instruction. Three replicate wells were used in this experiment.

[4] = ROS-responsiveness: HPLC monitoring of CAPT-CA degradation in the presence of H2O2; format: physicochemical; conditions: CAPT-CA 160 μM, H2O2 40 mM
Description: HPLC spectra of CAPT, CA, CAPT-CA prodrug, and the degradation of CAPT-CA (160 μM) in the presence of H2O2 (40 mM) for different times were obtained. A C18 column was used. The mobile phase A was acetonitrile containing 0.1% TFA and mobile phase B was water containing 0.1% TFA. The elution procedure was shown as below: 0-5 min: 98% B→98% B; 5-15 min: 98% B→40% B; 15-17 min: 40% B→40% B. The flow rate was 1.5 mL/min. The detection wavelength was 220 nm.
To evaluate the ROS-responsiveness of CAPT-CA, high performance liquid chromatography (HPLC) has been employed to monitor the release of CAPT and CA after incubation of CAPT-CA with a ROS reagent (hydrogen peroxide, H2O2). The retention time of free CAPT, free CA and CAPT-CA was at 10.138 min, 13.275 min, 14.283 min, respectively.

Raw 264.7 cells = assay: Cytotoxicity test (MTT assay); format: cell-based; conditions: Raw264.7 cells, 24 h, with or without LPS (10 μg/mL), tested concentration range, FIG. 1
Description: The effect of the prodrug on the viability of Raw 264.7 cells was determined using the MTT assay. Briefly, Raw 264.7 cells were seeded in 24-well plates. After a 24 h incubation, prodrugs were added to the cells at different concentrations and incubated for 1 h, and then, the cells were treated with or without LPS (10 μg/mL) for another 24 h. Next, 50 μL of MTT solution (5 mg/mL) were added to each well and the cells were incubated for 3 h at 37° C. Then, 1 mL of DMSO were added to dissolve the MTT-formazan crystal. The absorbance at 570 nm and 630 nm were measured. Three replicate wells were used in this experiment.

prodrug peak in HPLC after incubation with H2O2 (release of free CA and CAPT) ([4]; 4 h): prodrug peak decreases
prodrug peak in HPLC after incubation with H2O2 ([4]; 22 h): almost disappeared
SMILES: CC(CSC(/C=C/c1ccccc1)SCC(C)C(=O)N1CCCC1C(=O)O)C(=O)N1CCCC1C(=O)O (stereo not drawn) [CAPT-CA]
NO generation resulting from LPS stimulation [1]: significantly suppressed
mRNA levels of the cytokines (TNF-α, IL-6, IL-1β) [2]: significantly down-regulates
protein levels of the cytokines (TNF-α, IL-1β, IL-6) [3]: significantly down-regulates
cytotoxicity of the prodrug (Raw 264.7 cells): minimal
